According to PMC11784013, “Potassium molybdate blocks APN-dependent coronavirus entry by degrading receptor via PIK3C3-mediated autophagy” (Journal of Virology, 2024):

Legend:
TGEV Miller [1] = experiment: TGEV infection of ST cells (RT-qPCR, TCID50, western blot, IFA); format: cell-based, transmissible gastroenteritis virus; conditions: TGEV Miller 0.1 MOI, PM 1 h pretreatment and 17 h after infection, TCID50, western blot, IFA
Experimental: Fig 1 PM inhibits TGEV and PRCV infection in ST cells. (A) A cytotoxicity assay of PM in ST cells. ST cells cultured in a 96-well plate were incubated with different concentrations of PM for 24 h, which was tested by Cell Counting Kit 8. (B) Time course for PM inhibiting TGEV or PRCV or PEDV infection assay. (C–F) The ST cells, pretreated with PM at the indicated concentrations for 1 h were infected with TGEV Miller (0.1 MOI) or PRCV (0.1 MOI) for 1 h and were again treated with PM at 37°C for 17 h. The cell samples were collected and examined by real-time quantitative PCR (RT-qPCR), TCID50, western blot (C and D), and immunofluorescence assay (IFA) (E and F), scale bar: 50 µm. (G) Vero-E6 cells were treated with indicated PM and infected with PEDV LJX 01/2014 according to the time course of Fig. 1B, which was detected by TCID50 and western blot. Results are presented as mean ± SD of data from three independent experiments. ns, no significant; **, P ≤ 0.01; ***, P ≤ 0.001.
Fig 3 PM inhibits TGEV and PRCV infection by potassium ion and molybdate synergy. […] The cell samples were measured by RT-qPCR. (C and D) ST cells were treated with PM (K2MoO4, 10 mM), KCl (20 mM), Na2MoO4 (10 mM), sodium chloride (NaCl, 10 mM), K2MoO4 (10 mM), and NaCl (20 mM) as well as Na2MoO4 (10 mM) and KCl (20 mM) for 1 h and then infected with TGEV Miller (0.1 MOI) or PRCV (0.1 MOI) for 17 h, which was determined by RT-qPCR and TCID50. […]
Total RNA was extracted using RNAiso reagent (TaKaRa, Japan, 9109) and reverse transcribed into cDNA using HiScript Q RT SuperMix for qPCR (Vazyme, China, R223-01), both of which followed the manufacturer’s recommendations. The TGEV and PRCV virus copy numbers were detected by the TaqMan probe-based RT-qPCR method developed previously in our laboratory ([59]). Relative qPCR was also performed using ChamQ SYBR qPCR master mix (Vazyme, China, Q311-02), and the results were calculated via the 2^-ΔΔCT method.

TGEV Miller [2] = experiment: TGEV challenge of neonatal piglets, PM therapy and prevention; format: in vivo
Experimental: Fig 10 Oral administration of PM reduces TGEV pathogenicity by autophagic degradation of APN in piglets. (A) Experimental schemes for testing therapeutic and prophylactic efficacy of PM treatment against TGEV challenge in four groups of piglets. (B) Viral shedding was measured by RT-qPCR every 12 h postinfection. (C) TGEV genome copy numbers of duodenum, jejunum, and ileum were detected by RT-qPCR, and APN, PIK3C3, P62, and TGEV N in the small intestine were determined by western blot from piglets sacrificed at 24 hpi. (D) IFA of TGEV N and APN in different segments of the small intestine from piglets sacrificed at 24 hpi. Scale bar: 50 µm. Results are presented as mean ± SD of data from three independent experiments. **, P ≤ 0.01; ***, P ≤ 0.001.
Small intestinal tissues were collected, fixed for 24 h in 10% formalin, dehydrated according to the standard protocol, embedded in paraffin, and subjected to hematoxylin and eosin staining by standard procedures. For immunofluorescence analysis, Organoid monolayers or ST cells were fixed with 4% paraformaldehyde for 20 min and then permeabilized with 0.1% Triton X-100 (Beyotime, China, ST797) for 20 min at 37°C. Organoid monolayers or ST cells were blocked with 5% BSA (Biofroxx, Germany, 4240GR100) for 1 h and then labeled with primary antibodies overnight at 4°C. After rinsing, the sections were incubated with secondary antibodies for 1 h at room temperature. Next, 4’,6-diamidino-2-phenylindole (DAPI; Beyotime, China, C1006) was used to stain the nuclei. After washing, the organoid monolayers or ST cells were visualized using confocal laser-scanning microscopy (Zeiss LSM 900, Germany). Apical-out porcine intestinal organoids or small intestinal tissues were stained with primary and secondary antibodies and visualized using confocal laser-scanning microscopy (Zeiss LSM 900, Germany) according to the manufacturer’s protocol ([28]).
Neonatal pigs spontaneously delivered from sows were confirmed to be negative for TGEV by RT-qPCR and enzyme-linked immunosorbent assay. For the cytotoxicity and pharmacokinetic parameters of the PM, three piglets were orally administered PM (100 mg/kg), and the serum was collected by venipuncture at 0, 1, 2, 4, 6, 8, 10, 12, 16, and 24 h after oral administration of PM for cytotoxicity assays and pharmacokinetic parameter determination. For antiviral animal experiments, piglets were randomly separated into four groups: the mock group ([3]), TGEV group ([3]), TGEV-PM-therapy group ([3]), and TGEV-PM-prevention group ([3]). For the TGEV group, neonatal pigs were orally administered 1.245 × 10^8 PFU TGEV Miller for 24 h. In addition, piglets in the TGEV-PM therapy group were orally infected with 1.245 × 10^8 PFU TGEV Miller and then treated with PM (100 mg/kg). For the TGEV-PM-prevention group, three neonatal pigs were orally pretreated with PM (100 mg/kg) for 24 h and subsequently inoculated with 1.245 × 10^8 PFU TGEV Miller for 24 h. The body weights of all piglets were recorded, and anal swabs were collected every 12 h. At 24 hpi, all pigs were euthanized, and intestinal tissues were collected for RT-qPCR, western blot, IFA, and pathological examination. All animals were handled in strict accordance with good animal practice according to the Animal Ethics Procedures and Guidelines of the People’s Republic of China, and the study was approved by The Animal Administration and Ethics Committee of Lanzhou Veterinary Research Institute, Chinese Academy of Agricultural Sciences (Permit No. LVRIAEC-2020-030).

[3] = PM-therapy and PM-prevention groups vs control, 24 hpi, western blot
[4] = oral PM 100 mg/kg every 12 h, TGEV Miller 1.245 × 10^8 PFU oral

[K+].[K+].[O]=[Mo](=[O])([O-])[O-] [PM, potassium molybdate]
TGEV infection (TGEV Miller [1]): effectively restricted | APN expression and TGEV N protein expression in small intestine (IFA) (TGEV Miller [2]; 24 hpi): almost entirely inhibited | TGEV-induced villous atrophy of small intestinal segments (H&E) (TGEV Miller [2]; PM 100 mg/kg, preventive or therapeutic treatment, 24 hpi): almost completely reversed TGEV-induced villous atrophy | effect of PM alone on the small intestine (H&E) (TGEV Miller [2]; PM treatment alone): did not have any impact on the small intestine | TGEV burden throughout the small intestine (TGEV Miller [2]; PM-therapy and PM-prevention groups vs control, 24 hpi, RT-qPCR and western blot): substantially lower | APN and P62 expression throughout the small intestine (TGEV Miller [2]; [3]): substantially lower | PIK3C3 expression in the small intestine (TGEV Miller [2]; [3]): significantly higher | body weight loss (TGEV Miller [2]; [4]): TGEV group lost more weight and had higher viral shedding than those receiving PM | viral shedding (anal swabs, RT-qPCR) (TGEV Miller [2]; [4]): TGEV group lost more weight and had higher viral shedding than those receiving PM
